The supplement of paper PMC11208160

experiment: recombinant UMI read abundance after kanamycin selection (control-corrected) (log10(CPM+1)); higher = more efficient recombination; extreme values may be limits of the assay; sequences stand for … in AGTGCAGAGAAAATCGGCCAGTTTTCTCTGCCTGCAGTCCGCATGCCGTGGGACCCCTTGGGTTCTAACCTGTTGCCTAGATTTATGCAGCGGACTGCCTTTCTCCCAAAGTGATAAACCGG…AGGTTGGTTTCACT; site = the 11-nt donor
Summary of the method: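 Sequenced counts of recombinant UMIs were turned into CPM, averaged across replicates and scaled with control-derived factors. The reported figure is log10(CPM+1). Those UMIs, each 12 nt long, tagged donor and donor-binding-loop pairs on a plasmid with a promoterless kanamycin gene, screened as a pool in Escherichia coli with IPTG (0.07 mM) plus kanamycin or without selection.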
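Note: IS621 bridge recombinase in Escherichia coli cells against a fixed T5 target plasmid.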

Sequence | recombinant UMI read abundance (log10)
AGGACGACATGGACCGGTTTTCCCGGTAATCCGTATTTGCA (site AGGATGACTTG) | 0.853
CCCCACACATGGACCGGTTTTCCCGGTAATCCGTATTTGTT (site CCCCACACTTA) | 0.396
CGTAGAACATGGACCGGTTTTCCCGGTAATCCGTATTTGTT (site CGTGGAACTAA) | 0.00623
CAAGCAGCATGGACCGGTTTTCCCGGTAATCCGTATTTGCT (site CAAGCAACTAG) | 1.47
CTCTTCTCATGGACCGGTTTTCCCGGTAATCCGTATTTGGG (site CTCTTCTCTCC) | 0
AGCTCAGCATGGACCGGTTTTCCCGGTAATCCGTATTTGGG (site GGCTCAGCTCC) | 0.0255
CCTACAGCATGGACCGGTTTTCCCGGTAATCCGTATTTGAT (site CCTACAGCTAT) | 0.00631
CGATAGACATGGACCGGTTTTCCCGGTAATCCGTATTTGCC (site CGATAGACTGG) | 2.96
CGTTGAACATGGACCGGTTTTCCCGGTAATCCGTATTTGTT (site CGTGGAACTAA) | 0.0247
TTTATTCCATGGACCGGTTTTCCCGGTAATCCGTATTTGAC (site TTTATTCCTGT) | 0
ATTGAGACATGGACCGGTTTTCCCGGTAATCCGTATTTGGT (site ATTGATACTAC) | 0.512
TTACCTGCATGGACCGGTTTTCCCGGTAATCCGTATTTGTG (site TTACCTGCTCA) | 0.0157
GAGAAGCCATGGACCGGTTTTCCCGGTAATCCGTATTTGGG (site GAGAAGCCTCC) | 0.0155
TCAGAGACATGGACCGGTTTTCCCGGTAATCCGTATTTGCG (site TCAGAGACTAG) | 0.65
CCCTGCTCATGGACCGGTTTTCCCGGTAATCCGTATTTGGG (site CCCTACTCTCC) | 0.174
ACATGAACATGGACCGGTTTTCCCGGTAATCCGTATTTGTC (site ACAAGAACTGA) | 0
GACAAACCATGGACCGGTTTTCCCGGTAATCCGTATTTGGA (site GACAAACCTTC) | 0
TCCGGTCCATGGACCGGTTTTCCCGGTAATCCGTATTTGCA (site ACCGGTCCTTG) | 0
GGGGCAGCATGGACCGGTTTTCCCGGTAATCCGTATTTGCA (site GGGGCACCTTG) | 0
CCGTTTTCATGGACCGGTTTTCCCGGTAATCCGTATTTGCT (site CCGTTTCCTAG) | 0.00608
GGCCATCCATGGACCGGTTTTCCCGGTAATCCGTATTTGTT (site GGCCAGCCTAA) | 0.00245
CTAGTATCATGGACCGGTTTTCCCGGTAATCCGTATTTGAC (site CTTGGATCTGT) | 0
GGTACGTCATGGACCGGTTTTCCCGGTAATCCGTATTTGGA (site GGTACGTCTTC) | 0.695
TCCCCCGCATGGACCGGTTTTCCCGGTAATCCGTATTTGCG (site TCCACCGCTCG) | 0.00501
CAAGCGCCATGGACCGGTTTTCCCGGTAATCCGTATTTGAG (site CAAGCGCCTCT) | 0.322

Sequence | recombinant UMI read abundance (log10)
CGCCGTCCATGGACCGGTTTTCCCGGTAATCCGTATTTGCT (site CGCCGTCCTAG) | 0.666
CTAGTATCATGGACCGGTTTTCCCGGTAATCCGTATTTGAC (site CTAGTCACTGT) | 0
GAGAAGCCATGGACCGGTTTTCCCGGTAATCCGTATTTGGG (site GCGAAGCCTCC) | 0.0122
CGTGGAACATGGACCGGTTTTCCCGGTAATCCGTATTTGTT (site CGCGGAACTAA) | 0.501
GAGAAGCCATGGACCGGTTTTCCCGGTAATCCGTATTTGGG (site GTGAAGCCTCC) | 0.0251
CGATAGACATGGACCGGTTTTCCCGGTAATCCGTATTTGCC (site TGATAGACTGG) | 0
TGGCTGGCATGGACCGGTTTTCCCGGTAATCCGTATTTGGC (site TGGCGGGCTGC) | 0
TGGCGGGCATGGACCGGTTTTCCCGGTAATCCGTATTTGGC (site TGGCGGGCTGC) | 1.79
ATACTAACATGGACCGGTTTTCCCGGTAATCCGTATTTGGA (site CTACTAACTTC) | 0.853
CAAGGAACATGGACCGGTTTTCCCGGTAATCCGTATTTGCT (site CAAGGAACTAG) | 2.26
CGATCTTCATGGACCGGTTTTCCCGGTAATCCGTATTTGTT (site CGATCATCTAG) | 0
TAATTCCCATGGACCGGTTTTCCCGGTAATCCGTATTTGCT (site AAATTCCCTAG) | 0.531
CAGGGCCCATGGACCGGTTTTCCCGGTAATCCGTATTTGCA (site CAGGGCCCTTG) | 1.24
GGAGTGGCATGGACCGGTTTTCCCGGTAATCCGTATTTGGT (site CGAGTGGCTAC) | 0.437
AGAAAGTCATGGACCGGTTTTCCCGGTAATCCGTATTTGCA (site AGAAAGTCTTG) | 2.65
GGACACCCATGGACCGGTTTTCCCGGTAATCCGTATTTGTT (site GGGCACCCTAA) | 0.0209
CGTTAGCCATGGACCGGTTTTCCCGGTAATCCGTATTTGAG (site CGTTAGCCTCT) | 0.184
TGTGATTCATGGACCGGTTTTCCCGGTAATCCGTATTTGTG (site TGTGATTCTCA) | 0.304
ATCCAAGCATGGACCGGTTTTCCCGGTAATCCGTATTTGAG (site ATTCAAGCTCT) | 0.0155
AAGCACGCATGGACCGGTTTTCCCGGTAATCCGTATTTGAG (site AAGCACGCTCT) | 1.49
TAGCATACATGGACCGGTTTTCCCGGTAATCCGTATTTGCA (site TAGCATACTTG) | 1.62
CTGGAAACATGGACCGGTTTTCCCGGTAATCCGTATTTGCA (site CTGGAAACTTG) | 2.2
CGTCTCTCATGGACCGGTTTTCCCGGTAATCCGTATTTGGG (site CGTCTCTCTCC) | 0.0222
GTTGTTCCATGGACCGGTTTTCCCGGTAATCCGTATTTGGT (site GTTTTTCCTAC) | 0
CTAGTATCATGGACCGGTTTTCCCGGTAATCCGTATTTGAC (site CTAGTGTCTGT) | 2.01

Sequence | recombinant UMI read abundance (log10)
CCCCACACATGGACCGGTTTTCCCGGTAATCCGTATTTGTC (site CCCCACACTCA) | 0.235
CGGGAACCATGGACCGGTTTTCCCGGTAATCCGTATTTGGT (site CGGGAACCTAA) | 0.0297
CCCAATTCATGGACCGGTTTTCCCGGTAATCCGTATTTGCC (site TCCAATTCTGG) | 0
CCTAAAGCATGGACCGGTTTTCCCGGTAATCCGTATTTGAT (site CCTGAAGCTAT) | 0
ATGGAGGCATGGACCGGTTTTCCCGGTAATCCGTATTTGTG (site ATGGAGGCTCA) | 1.11
GATCCTACATGGACCGGTTTTCCCGGTAATCCGTATTTGCT (site GATCCTACTAG) | 0.00962
GTTCTAGCATGGACCGGTTTTCCCGGTAATCCGTATTTGCA (site GTTCCAGCTTG) | 0.0113
TCACACTCATGGACCGGTTTTCCCGGTAATCCGTATTTGCA (site TCAAACTCTTG) | 0
TCTTACTCATGGACCGGTTTTCCCGGTAATCCGTATTTGCA (site TCGTACTCTTG) | 0.946
CTAGACTCATGGACCGGTTTTCCCGGTAATCCGTATTTGCT (site CTAGACTCTAG) | 3.32
CGGTAACCATGGACCGGTTTTCCCGGTAATCCGTATTTGAT (site CGGTAACCTAT) | 0
ATTGAGACATGGACCGGTTTTCCCGGTAATCCGTATTTGGT (site ATTGGGACTAC) | 0.407
CTGGAAACATGGACCGGTTTTCCCGGTAATCCGTATTTGCA (site CTGTAAACTTG) | 0.123
GCGGAATCATGGACCGGTTTTCCCGGTAATCCGTATTTGTT (site GCGGAATCTAA) | 2.76
CAAGCAGCATGGACCGGTTTTCCCGGTAATCCGTATTTGCT (site TAAGCAGCTAG) | 0.00331
GGCTCAGCATGGACCGGTTTTCCCGGTAATCCGTATTTGGG (site AGCTCAGCTCC) | 0.00802
GTGGAGGCATGGACCGGTTTTCCCGGTAATCCGTATTTGTG (site GTGGCGGCTCA) | 0.00613
TCAGGTGCATGGACCGGTTTTCCCGGTAATCCGTATTTGAT (site CCAGGTGCTAT) | 1.06
AATGTATCATGGACCGGTTTTCCCGGTAATCCGTATTTGAC (site AATGTATCTGT) | 3.11
ATTGAGACATGGACCGGTTTTCCCGGTAATCCGTATTTGGT (site ATTGAGACTAG) | 0.772
GAGCTTACATGGACCGGTTTTCCCGGTAATCCGTATTTGAT (site GAGCTAACTAT) | 0.136
TTCAAGACATGGACCGGTTTTCCCGGTAATCCGTATTTGCC (site TTCAAGACTGG) | 0
AACTATACATGGACCGGTTTTCCCGGTAATCCGTATTTGGT (site AACTATACTAC) | 1.26
GGTCGGCCATGGACCGGTTTTCCCGGTAATCCGTATTTGAA (site GGTCGGCCTTT) | 0
CTAGTATCATGGACCGGTTTTCCCGGTAATCCGTATTTGAC (site CTAGTCTCTCT) | 0.0131
